The source of these data is patent publication US4600710A, “β-Adrenergic receptor agonist alkylaminoalkyl pyridinemethanol derivatives” (G. D. Searle & Co., priority 1985, dated 1986).

For one test, the target named is T1, β-adrenergic receptor (Rattus norvegicus, UniProt P10608).
T1 construct: Rat cerebellums were homogenized in 20 volumes of ice cold 50 mM Tris-HCl buffer; from tissue; host or cells: rat cerebellum (crude plasma membranes)
Description: Beta-adrenergic receptor binding ([3H]DHA displacement, rat cerebellum plasma membranes). The following applies: rat cerebellum cortex membranes, 1 nM [3H]DHA; read-out: IC50, inhibition of β-adrenergic receptor binding of tritiated dihydroalprenolol. As to the method: Tissue preparation: Rat cerebellum plasma membranes were prepared by the method of U'Prichard et al, (J. Biol. Chem., 253, No. 14, pp. 5090-5102, 1978). Rat cerebellums were homogenized in 20 volumes of ice cold 50 mM Tris-HCl buffer (pH 7.4) with a Tekmar homogenizer. Crude plasma membranes were obtained by centrifugation at 45,000× g for 15 min with an intermediate rehomogenization in fresh buffer. The final pellets were resuspended in ten volumes of 50 mM buffer with 0.25M sucrose.
Binding Assay: Rat cerebellum plasma membrane preparations (10 mg wet weight per ml in a volume of one ml) were incubated with 1 nM [^3 H] DHA in buffer, 1 mM catechol and 0.01% ascorbic acid, either in the presence or absence of various amounts of test substance at room temperature for 20 minutes. Bound and free radioligand were separated by addition of 3.5 ml buffer (0° C.) followed by rapid filtration through Whatman GF/B glass fiber filter. The filter was then washed rapidly with three 3.5 ml buffer (3X). Specific binding was defined as the amount of the [^3 H]DHA bound in the absence of competing ligand minus the amount bound in the presence of 10 uM (±) propranolol (nonspecific binding). […] IC50 (inhibitory concentration -50%) values were calculated from the displacement data after logit-log transformation with least squares linear regression.

Test [1] concerns spontaneously hypertensive rats. The test is described as follows: Systemic hemodynamics in pentobarbital anesthetized spontaneously hypertensive rats. It counts as in vivo, rat. As to the method: Five adult male spontaneously hypertensive rats were anesthetized with sodium pentobarbital and instrumented with a femoral artery catheter for measuring arterial pressure and heart rate. The jugular vein was catheterized for injections and a thermocouple was placed in the aortic arch via the carotid artery for cardiac output measurement by the thermodilution technique. The trachea was cannulated and the rats breathed 100% oxygen. Control readings were taken and the test compound was injected in doses ranging from 0.1 to 30 mg/kg iv. After the 30 mg/kg dose, propranolol was injected iv at a dose of 1 mg/kg. Changes in hemodynamic parameters from control readings were analyzed by the paired t-test.

Test [2] shares this test system. The test is described as follows: Intravenous dose-response studies in conscious spontaneously hypertensive rats. The following applies: conscious SHR. The format is in vivo, rat. As to the method:
Six adult male spontaneously hypertensive rats were anesthetized with ether and instrumented with carotid artery and jugular vein catheters. The rats were allowed to recover from surgery and ether anesthesia for three to five hours. The test compound was administered intravenously in saline at doses of 0.1, 0.2, 0.7, 2, 7, and 20 mg/kg to give cumulative doses of 0.1, 0.3, 1, 3, 10, and 30 mg/kg. At the completion of these injections propranolol, a beta-adrenergic antagonist, was administered intravenously at a dose of 1 mg/kg and the injections of the test compound were repeated. The volume of each injection was 0.1 ml/100 grams of body weight. Mean arterial pressure and heart rate were measured via the carotid artery with a Statham pressure transducer and Gould physiological recorder. Results were analyzed using a paired t-test.

Test [3] shares this test system. The test is described as follows: Oral dosing studies in conscious spontaneously hypertensive rats. It counts as in vivo, rat. The following applies: conscious SHR, daily oral dosing 100 mg/kg for 3 days. As to the method: Ten adult male spontaneously hypertensive rats were anesthetized with sodium pentobarbital and instrumented with a carotid arterial catheter. On the following day each rat was tethered in a plastic cage and arterial blood pressure and heart rate were monitored via the arterial catheter continuously for 72 hours. Each rat was dosed intragastrically with 100 mg/kg of the test compound each day for three days. A vehicle treated group (saline) of 10 rats was tested simultaneously. Differences in blood pressure between the treated and vehicle group were analyzed by the Kraskal-Wallis and Wilcoxon rank sum tests.

Where a name gives a salt, the structure may show the parent alone.

T1 sequence (P10608 whole entry): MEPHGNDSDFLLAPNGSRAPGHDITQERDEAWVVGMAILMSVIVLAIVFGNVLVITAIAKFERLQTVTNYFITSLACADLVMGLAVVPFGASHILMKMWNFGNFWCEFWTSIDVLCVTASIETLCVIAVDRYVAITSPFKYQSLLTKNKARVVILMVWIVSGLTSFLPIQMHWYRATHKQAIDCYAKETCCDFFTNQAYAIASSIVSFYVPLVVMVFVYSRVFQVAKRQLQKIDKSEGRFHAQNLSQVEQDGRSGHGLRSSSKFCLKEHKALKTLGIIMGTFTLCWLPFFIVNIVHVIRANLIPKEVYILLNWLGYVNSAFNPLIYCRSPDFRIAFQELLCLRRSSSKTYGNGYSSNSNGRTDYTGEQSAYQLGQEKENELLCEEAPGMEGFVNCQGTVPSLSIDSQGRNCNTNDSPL

Turning to `CC(C)NCC(O)c1cccnc1` (stereo not drawn) [Example 1B, oxalate salt], the IC50 on β-adrenergic receptor was found to be 39 µM. The “total peripheral resistance after compound” value in test [1] (pentobarbital anesthetized SHR, iv 0.1 to 30 mg/kg, decreased from control 3 units) was determined as 1.1 units. Moreover, the “cardiac output after compound” value in test [1] (pentobarbital anesthetized SHR, iv 0.1 to 30 mg/kg, increased from control 72 ml/min) came out at 92 mL/min. The ED25 in test [2] (Rattus norvegicus, iv, cumulative doses 0.1-30 mg/kg, read-out: calculated intravenous dose reducing mean arterial pressure by 25%) was 37 mg/kg. Also, in test [3], the “elevation of heart rate” value was 114 beats/min and the “time pressure remained reduced” value is 6 to 10 h. For the same compound, in test [3] (at 3-4 hours after dosing), the “lowering of mean arterial pressure” value came out at 39 mmHg.
In the case of `CC(C)NCC(O)COc1cccc2ccccc12` (stereo not drawn) [Propranolol, propranolol, reference compound], the “effect of propranolol on hemodynamic effects (cardiac output, total peripheral resistance) of the compound of the invention” value in test [1] (propranolol 1 mg/kg iv after the 30 mg/kg dose, anesthetized SHR) is reported as “reversed these hemodynamic effects”. For the same compound, in test [2] (propranolol 1 mg/kg iv), the “effect of propranolol on blood pressure and heart rate changes produced by the compound of the invention” value is “attenuated the hypertension and tachycardia”.
